Results on three compounds are retold here after patent publication US20210238173A1, “MITOGEN-ACTIVATED PROTEIN KINASE KINASE 7 INHIBITORS” (Yeda Research and Development Co. Ltd., priority 2018, published 2021).

The term half-life denotes how long it takes for the measured level to halve. By IC50 is commonly meant the midpoint of a concentration-inhibition curve.

Data set [1] can be described thus: Metabolic stability in mouse liver microsomes. The class given is in vitro ADME. The settings on record: for half-life: mouse, liver microsomes. An excerpt: (§1) A reference compound, REF1250, was used in this study: […]
Data set [2] concerns the target T1, MKK7 (Homo sapiens, UniProt O14733).
T1 construct: purchased Nanosyn (contract assay)
T1 sequence (O14733 1-419): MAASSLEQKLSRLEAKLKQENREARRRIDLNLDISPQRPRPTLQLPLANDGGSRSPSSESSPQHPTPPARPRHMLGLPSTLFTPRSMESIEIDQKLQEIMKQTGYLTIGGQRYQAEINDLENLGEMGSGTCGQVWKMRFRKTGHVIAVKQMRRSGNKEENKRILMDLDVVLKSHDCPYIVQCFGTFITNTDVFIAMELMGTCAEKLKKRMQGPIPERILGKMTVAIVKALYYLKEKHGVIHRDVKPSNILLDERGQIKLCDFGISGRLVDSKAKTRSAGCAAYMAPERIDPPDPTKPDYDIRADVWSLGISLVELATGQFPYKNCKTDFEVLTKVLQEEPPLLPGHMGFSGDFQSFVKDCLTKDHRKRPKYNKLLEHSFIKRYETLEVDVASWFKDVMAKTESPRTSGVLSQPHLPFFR
The data set is described as follows: In vitro kinase activity assay for MKK7 (Nanosyn). The class given is biochemical.

Data set [3] concerns the target T2, MKK4 (Homo sapiens, UniProt P45985).
T2 construct: purchased Nanosyn (contract assay)
T2 sequence (P45985 1-399): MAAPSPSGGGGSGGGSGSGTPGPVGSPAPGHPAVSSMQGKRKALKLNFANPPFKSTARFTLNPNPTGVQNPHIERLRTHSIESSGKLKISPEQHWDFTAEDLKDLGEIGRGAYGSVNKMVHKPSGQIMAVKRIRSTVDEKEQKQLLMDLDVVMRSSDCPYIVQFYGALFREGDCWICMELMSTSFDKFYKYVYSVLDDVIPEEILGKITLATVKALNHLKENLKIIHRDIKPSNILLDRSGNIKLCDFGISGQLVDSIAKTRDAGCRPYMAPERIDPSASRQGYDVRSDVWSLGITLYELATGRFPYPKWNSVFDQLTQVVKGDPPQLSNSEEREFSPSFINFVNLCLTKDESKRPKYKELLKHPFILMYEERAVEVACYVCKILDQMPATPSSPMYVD
Nature of the data set: In vitro activity assay for MKK4 (Nanosyn). The class given is biochemical. The protocol:
In Vitro Activity Assays for MKK7 or MKK4 (Carried by Nanosyn):
Exemplary test compounds, according to some embodiments of the present invention, were diluted in DMSO to a final concentration that ranged from 10 μM to 0.0565 nM, while final concentration of DMSO in all assays was kept at 1%. Reference compound, Staurosporine, was tested in a similar manner. […] After incubation, activity of now activated JNK1 was tested in the presence of 30 μM ATP ATP for 17 h (MKK7) or 4 h (MKK4).

Data set [4] is described as follows: Metabolic stability in dog liver microsomes. The class given is in vitro ADME. The settings on record: for half-life: dog, liver microsomes.
Excerpt: as §1

Data set [5] in a line: Metabolic stability in monkey liver microsomes. The class given is in vitro ADME.
Excerpt: as §1
(Liver microsomes are a subcellular fraction often used to study metabolism.)

The target in data set [6] is T3, MKK7 (Homo sapiens, UniProt O14733).
T3 construct: MKK7 isoform 1 (103-426 residues) with a C-terminal 6-His tag; 6-His (C); made in house; host or cells: E. coli Rosetta2 (DE3) pLysS
T3 sequence (O14733 103-426 isoform O14733-3): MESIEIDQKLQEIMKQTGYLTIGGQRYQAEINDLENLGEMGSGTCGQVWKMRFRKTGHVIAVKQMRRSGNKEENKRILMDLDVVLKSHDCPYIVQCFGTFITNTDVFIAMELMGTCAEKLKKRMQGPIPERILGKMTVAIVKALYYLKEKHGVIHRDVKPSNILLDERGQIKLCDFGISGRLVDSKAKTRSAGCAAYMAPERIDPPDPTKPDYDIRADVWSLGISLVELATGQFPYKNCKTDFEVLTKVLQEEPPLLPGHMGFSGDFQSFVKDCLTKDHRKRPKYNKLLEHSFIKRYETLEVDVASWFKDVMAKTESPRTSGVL
The data set is described as follows: Intact protein mass spectrometry covalent labeling. The format is binding. The settings on record: 4° C., molecule 20 μM, protein 10 μM. The method, then:
Intact Protein Mass Spectrometry:
Samples were injected after indicated incubation times into LC/MS (Waters ACUITY UPLC class H), in positive ion mode using electrospray ionization. C4 column (300 Å, 1.7 μM, […]×100 mm) was held at 40° C., and the autosampler at 10° C. Desolvation temperature was 500° C. with flow rate of 1000 liter/hour. The voltage used were 0.69 kV for the capillary and 46 V for the cone. Spectra were deconvoluted using MaxEnt1 software.
After 1 hour or 16 hours incubation at 4° C.

Like-named read-outs stand apart in the source and are kept apart here.

For `C=CC(=O)Nc1cccc(-c2n[nH]c3c2CCCC3)c1` [GO4], the “% remaining @ 40 min” value in data set [1], in data set [4] and in data set [5] was 0% in each case. For the same compound, the half-life in data set [1], in data set [4] and in data set [5] was below 5 min throughout. For the same compound, the 50% inhibitory concentration (IC50) in data set [2] (read-out: MKK7 IC50 in vitro) was 11 nM; in data set [3], 4130 nM. Also, the values for the covalent labeling in data set [6] (1 hour) and in data set [6] (16 hours) were 65.16% and 95.15%, respectively.
Take `C=CC(=O)Nc1cccc(-c2n[nH]c3ccccc23)c1` [GO32]: the “% remaining @ 40 min” value in data set [1], in data set [4] and in data set [5] was 0% each time. Moreover, the half-life in data set [1], in data set [4] and in data set [5] was below 5 min in each case. For the same compound, in data set [2] (MKK7 nanomolar, Aurora kinase micromolar), the “potency towards MKK7 compared with Aurora kinase” value is recorded as “at least two orders of magnitude”. Further, the values for the IC50 in data set [2] (read-out: MKK7 IC50), in data set [2] (read-out: MKK7 IC50 in vitro) and in data set [3] were 9 nM, 6 nM and 4150 nM, respectively. The values for the covalent labeling in data set [6] (1 hour) and in data set [6] (16 hours) were 78.14% and 96.29%, respectively.
`C=CC(=O)Nc1cccc(-c2n[nH]c3cc(C)ccc23)c1` [GO80]: the “% remaining @ 40 min” value in data set [1], in data set [4] and in data set [5] was 0% each time. Further, the half-life in data set [1], in data set [4] and in data set [5] was below 5 min in each case. Further, the IC50 in data set [2] (read-out: MKK7 IC50 in vitro) turned out to be 5 nM; in data set [3] it was 7810 nM. Moreover, the covalent labeling in data set [6] (1 hour) is given as 59.58%; in data set [6] (16 hours) it was 92.87%.
